Results taken from US20190328721A1, “METHOD OF ACTIVATING DENDRITIC CELLS” (KOREA INSTITUTE OF SCIENCE AND TECHNOLOGY, priority 2018, published 2019).

Columns and labels:
Type in all cases: cell-based, mice
[1] = test system: bone marrow-derived macrophages (BMDMs); test: Phagocytosis of cancer cells by bone marrow-derived macrophages in vitro
Method: (§1) Specifically, the present inventors prepared bone marrow-derived macrophages (BMDMs) differentiated from excised bone marrow of mice using M-CSF and bone marrow-derived dendritic cells (BMDCs) differentiated from excised bone marrow using Flt3L. The degree of differentiation was confirmed by flow cytometry analysis using antibodies specifically binding to F4/80 (BMDM marker) and CD11c (BMDC marker), respectively (FIGS. 2A and 2B).
(§2) The prepared BMDMs and BMDCs were stained with 1 μM CellTracker Deep Red (Thermo Fisher Scientific, USA). 30 μM of Y27632 (Abcam, USA) or 30 μM of fasudil (Selleck Chemicals, USA) was added to each of 15×10^4 cells/ml of the stained macrophages and dendritic cells and incubated at 37° C. for 1 hour. As a negative control, macrophages or dendritic cells that were not incubated with Y27632 and fasudil were used.
(§3) Bone marrow-derived macrophages or dendritic cells prepared in RPMI medium and cancer cell lines stained with 1 μM CellTracker CMFDA (Thermo Fisher Scientific, USA) were co-cultured at about 37° C. for about 2 hours. CT26.CL25, a colon cancer cell line, and B16F10-OVA, a melanoma cell line, were used as the cancer cells.
(§4) Thereafter, the percentage of cancer cells was measured by flow cytometry, and the phagocytosis ratio of macrophages and dendritic cells against cancer cells was calculated. The results are shown in FIGS. 2C to 2F (left: cancer cell line CT26.CL25, right: cancer cell line B16F10-OVA).
(§5) In order to more accurately analyze the phagocytosis of macrophages and dendritic cells against cancer cells according to the treatment of the ROCK inhibitor, the present inventors analyzed phagocytosis of the BMDMs and BMDCs against CT26.CL25 colon cancer cells using the pHrodo-SE dye, which changes in fluorescence depending on pH. When […], the pH of the cancer cells decreased and became red. When treated with Y27632 as described above for the above-mentioned phagocytosis response, the phagocytic activities of both the BMDMs and BMDCs against cancer cells were improved.
(§6) The present inventors performed an experiment to confirm how long the phagocytosis of BMDMs and BMDCs against cancer cells due to the ROCK inhibitor is maintained. Specifically, BMDMs and BMDCs were pretreated with Y27632 for 1 hour, then Y27632 was removed, and immediately after 30 minutes, 1 hour, 2 hours, or 4 hours, the phagocytosis against CT26.CL25 and B16F10-Ova was measured using a flow cytometer. The other experimental conditions were the same as in Example 1-1.
In order to confirm whether the ROCK inhibitor increases phagocytosis against cancer cells by acting on phagocytic cells (BMDMs or BMDCs) themselves, Y27632 was used to pretreat the phagocytic cells or cancer cells for 1 hour, and the phagocytic activity was analyzed using the same procedure described in Example 1-1.
The present inventors identified through the above-mentioned results that Y27632 promotes phagocytic cells against cancer cells by inhibiting ROCK in the phagocytic cells. In order to elucidate a more detailed mechanism related to the increase of phagocytic activity by ROCK inhibitors, the present inventors analyzed phagocytosis of the phagocytic cells against cancer cells using blebbistatin (Sigma-Aldrich, USA), which can inhibit the movement of myosin light chain, which exist downstream of ROCK signaling pathway, according to the method described in Example 1-1.
Bone marrow-derived macrophages (BMDMs) treated with 30 μM of fasudil were co-cultured with B16F10-Ova malignant melanoma cells for 1 hour and the phagocytic activity of the BMDMs against apoptotic cancer cells was analyzed by flow cytometry analysis. In order to induce immunogenic apoptosis, 2.5 μM mitoxantrone (Sigma-Aldrich, USA) was administered with B16F10-Ova cells stained with CellTracker Deep Red (Thermo Fisher Scientific, USA) for 4 hours. […]

[2] = test system: bone marrow-derived dendritic cells (BMDCs); test: Phagocytosis of cancer cells by bone marrow-derived dendritic cells in vitro
Method: as §1, §2, §3, §4, §5, §6
In order to confirm whether the ROCK inhibitor increases phagocytosis against cancer cells by acting on phagocytic cells (BMDMs or BMDCs) themselves, Y27632 was used to pretreat the phagocytic cells or cancer cells for 1 hour, and the phagocytic activity was analyzed using the same procedure described in Example 1-1. […]
Phagocytic activity of bone marrow-derived dendritic cells (BMDCs) differentiated from bone marrow cells against cancer cells was analyzed by treating the BMDCs with ROCK inhibitor Y27632 (30 μM) for 1 hour and then co-cultivating with CT26.CL25 colon cancer cells pretreated with 25 μM of doxorubicin for 24 hours or B16F10-Ova malignant melanoma cells treated with 30 μM of Y27632 for 1 hour and then treated with 2.5 μM doxorubicin (Sigma-Aldrich, USA) for 24 hours by pHrodo SE (Thermo Fisher Scientific, USA) staining (BMDC:Dox-treated B16F10-Ova=1:1). As shown in FIGS. 16A to 16D, it was confirmed that the phagocytic activity of BMDCs induced by doxorubicin were increased in the Y27632-treated group compared to the control group (FIGS. 16A to 16D). […]

[3] = test system: bone marrow-derived dendritic cells (BMDCs); test: BMDC maturation markers CD40 and CD86 in vitro; settings: 30 μM, 1 hour
Method: In addition, the present inventors used pretreatment with 30 μM of Y27632 for 1 hour of bone marrow-derived dendritic cells (BMDCs) stained with cell marker CellTracker CMFDA (Thermo Fisher Scientific, Inc., USA) and then removed floating tumor cells by withdrawing removing the supernatant. Twenty hours later, the expression of CD40 and CD86 was analyzed by flow cytometry.
The present inventors then investigated whether dendritic cell maturation was promoted by the combination treatment of doxorubicin and Y27632. Specifically, 30 μM of Y27632 was used to pretreat bone marrow-derived dendritic cells (BMDC) stained with CellTracker CMFDA (Thermo Fisher Scientific, USA) for 1 hour, and then doxorubicin-treated CT26.CL25 was co-cultured for 4 hours, and floating cancer cells were removed by withdrawing supernatant. The expression level of CD40 and CD86, which are dendritic cell maturation markers, was analyzed by flow cytometry after 20 hours.

[4] = 30 μM, 1 hour, co-culture with CT26.CL25 or B16F10-OVA about 2 hours
[5] = cancer cells pretreated for 1 hour
[6] = phagocytic cells pretreated for 1 hour
[7] = pretreated 1 hour, then removed, CT26.CL25 and B16F10-Ova

Structure (SMILES): C[C@@H](N)[C@H]1CC[C@H](C(=O)Nc2ccncc2)CC1 [Y27632]
- phagocytic ability of macrophages against cancer cells [1, 4]: significantly increased
- phagocytic activity of BMDMs against cancer cells (pHrodo-SE dye) ([1]; CT26.CL25 colon cancer cells): improved
- phagocytosis by BMDMs against cancer cells, cancer cells pre-treated [1, 5]: not increased
- phagocytosis against cancer cells, BMDMs pretreated [1, 6]: increased
- time for which BMDMs maintain phagocytosis after the pretreatment [1, 7]: ≤ 1 h
- phagocytic activity of BMDCs against doxorubicin-treated cancer cells ([2]; 30 μM, 1 hour, CT26.CL25 (25 μM doxorubicin) or B16F10-Ova (2.5 μM doxorubicin), 24 hours): increased
- phagocytic ability of dendritic cells against cancer cells [2, 4]: significantly increased
- phagocytic activity of BMDCs against cancer cells (pHrodo-SE dye) ([2]; CT26.CL25 colon cancer cells): improved
- phagocytosis by BMDCs against cancer cells, cancer cells pre-treated [2, 5]: not increased
- phagocytosis against cancer cells, BMDCs pretreated [2, 6]: increased
- time for which BMDCs maintain phagocytosis after the pretreatment [2, 7]: ≤ 1 h
- DC maturation (CD40 and CD86 expression) of BMDCs ([3]; co-cultivation with CT26.CL25, analysed twenty hours later): did not increase
- dendritic cell maturation (CD40 and CD86) with doxorubicin-treated CT26.CL25 ([3]; co-culture 4 hours, analysed after 20 hours): increased
